Data: patent EP2140864A2 (H. Lundbeck A/S, priority 2001, dated 2002)
Like-named read-outs stand apart in the source and are kept apart here.

Columns and labels:
[1] = molecular target: T1, human 5HT7 (Homo sapiens, UniProt P34969); assay: Radioligand binding, 5HT7 receptor ([3H]-serotonin)
T1 construct: expressed in transfected cells
Description: Human 5HT1B, 5HT1D, 5HT1E, 5HT1F, and 5HT7 Receptors: The cell lysates of LM(tk-) clonal cell line stably transfected with the genes encoding each of these 5HT receptor-subtypes were prepared as described above. Cell membranes were suspended in 50mM Tris-HCl buffer (pH 7.4 at 37°C) containing 10 mM MgCl2, 0.2 mM EDTA, 10 µM pargyline, and 0.1% ascorbate. […] Nonspecific binding was determined in the presence of 10 µM serotonin. The bound radioligand was separated by filtration through GF/B filters using a cell harvester.
(§1) Binding data were analyzed using nonlinear regression and statistical techniques available in the GraphPAD Prism package (San Diego, CA). Enzymatic assay data were derived from a standard curve of reference compound data.

[2] = molecular target: DA transporter (Rattus norvegicus, UniProt P23977); assay: Binding at native DA transporter
Description: (§2) The binding properties of the compounds of the present invention were evaluated at one or more cloned receptors or native, tissue-derived transporters, using protocols described below.
(§3) The methods to determine binding affinity at native transporters are described in the following publications: 5HT transporter and NE transporter (Owens et al., 1997), and DA transporter (Javitch et al, 1984).
as §1

[3] = molecular target: 5HT transporter (Rattus norvegicus, UniProt P31652); assay: Binding at native 5HT transporter
Description: as §2, §3, §1

[4] = system: NE transporter; assay: Binding at native NE transporter; settings: Table 8; Ki rNE Uptk divided by Ki hGAL3
Description: as §2, §3, §1

[5] = molecular target: T2, human 5HT1A receptor (Homo sapiens, UniProt P08908); assay: Radioligand binding, 5-HT1A receptor (3H-8-OH-DPAT)
T2 construct: expressed in transfected cells; host or cells: COS-7 cells, transient (pCEXV-3 vector)
T2 sequence (P08908 1-422): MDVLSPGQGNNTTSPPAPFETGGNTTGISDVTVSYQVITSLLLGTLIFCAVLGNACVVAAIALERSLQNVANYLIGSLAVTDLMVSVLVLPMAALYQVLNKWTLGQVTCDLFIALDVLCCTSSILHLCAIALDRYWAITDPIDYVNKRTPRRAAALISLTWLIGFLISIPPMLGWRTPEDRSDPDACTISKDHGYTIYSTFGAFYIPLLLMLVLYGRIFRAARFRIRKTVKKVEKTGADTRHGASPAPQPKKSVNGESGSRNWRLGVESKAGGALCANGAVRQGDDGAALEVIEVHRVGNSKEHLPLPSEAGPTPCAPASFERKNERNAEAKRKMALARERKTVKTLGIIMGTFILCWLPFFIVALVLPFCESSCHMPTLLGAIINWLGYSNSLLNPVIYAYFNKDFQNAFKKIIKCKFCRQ
Description: 5-HT1A Receptor: The cDNA corresponding to the 5-HT1A receptor open reading frames and variable non-coding 5'-and 3'-regions, was cloned into the eukaryotic expression vector pCEXV-3. These constructs were transfected transiently into COS-7 cells by the DEAE-dextran method (Cullen, 1987), and harvested after 72 hours. Radioligand binding assays were performed as described above for the 5-HT2A receptor, except that ^3H-8-OH-DPAT was used as the radioligand and nonspecific binding was determined by the addition of 10 µM mianserin.
as §1

[6] = molecular target: T3, human GAL1 receptor (Homo sapiens, UniProt P47211); assay: Radioligand binding at cloned human GAL1 receptor
T3 construct: expressed in transfected cells
T3 sequence (P47211 1-349): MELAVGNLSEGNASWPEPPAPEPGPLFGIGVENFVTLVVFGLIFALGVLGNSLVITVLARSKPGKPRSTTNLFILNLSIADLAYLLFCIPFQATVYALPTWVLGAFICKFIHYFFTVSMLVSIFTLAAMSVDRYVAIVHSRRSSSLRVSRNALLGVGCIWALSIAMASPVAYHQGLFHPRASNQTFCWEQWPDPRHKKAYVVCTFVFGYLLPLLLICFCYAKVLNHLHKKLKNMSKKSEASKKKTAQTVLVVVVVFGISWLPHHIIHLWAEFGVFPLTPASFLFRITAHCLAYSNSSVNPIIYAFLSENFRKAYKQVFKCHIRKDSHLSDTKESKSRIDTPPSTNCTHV
Description: The binding properties of the pyrimidines of the present invention were evaluated at the cloned human galanin receptors, GAL1, GAL2, and GAL3, using protocols described herein. […]
LM(tk-) cells were stably transfected with the human GAL1 or GAL3 receptor. CHO cells were stably transfected with the human GAL2 receptor.
cDNAs for the human and rat GAL1, and human and rat GAL3 receptors were transfected with a G-418 resistant gene into the mouse fibroblast LM(tk-) cell line by a calcium phosphate transfection method (Cullen, 1987). Stably transfected cells were selected with G-418. Human and rat GAL2 receptors were similarly transfected into CHO cells.
Membranes were harvested from stably transfected LM(tk-) cells. Adherent cells were washed twice in ice-cold phosphate buffered saline (138 mM NaCl, 8.1 mM Na2HPO4, 2.5 mM KCl, 1.2 mM KH2PO4, 0.9 mM CaCl2, 0.5 mM MgCl2, pH 7.4) and lysed by sonication in ice-cold sonication buffer (20 mM Tris-HCl, 5 mM EDTA, pH 7.7). Large particles and debris were cleared by low speed centrifugation (200 x g, 5 min, 4°C). Membranes were collected from the supernatant fraction by centrifugation (32,000 x g, 18 min, 4°C), washed with ice-cold hypotonic buffer, and collected again by centrifugation (32,000 x g, 18 min, 4°C). The final membrane pellet was resuspended by sonication into a small volume of ice-cold binding buffer (-1 ml for every 5 plates: 10 mM NaCl, 20 mM HEPES, 0.22 mM KH2PO4, 1.26 mM CaCl2, 0.81 mM MgSO4, pH 7.4). Protein concentration was measured by the Bradford method (Bradford, 1976) using Bio-Rad Reagent, with bovine serum albumin as a standard. Membranes were held on ice for up to one hour and used fresh, or flash frozen and stored in liquid nitrogen. Membranes were prepared similarly from CHO cells.
Galanin Recentors: Binding assays were performed according to the following published methods: human GAL3 (PCT International Publication No. WO 98/15570), human GAL1 (PCT International Publication No. WO 95/2260), human GAL2 (PCT International Publication No. WO 97/26853).
as §1

[7] = molecular target: NE transporter (Rattus norvegicus, UniProt Q63380); assay: Binding at native NE transporter; settings: Table 7; native transporter, head prints r (rat); read-out: rNE Uptk Ki
Description: as §2, §3, §1

[8] = Table 8; Ki h5HT7 divided by Ki hGAL3
[9] = Table 7; native transporter, head prints r (rat); read-out: rDA Uptk Ki
[10] = Table 8; Ki rDA Uptk divided by Ki hGAL3
[11] = Table 7; native transporter, head prints r (rat); read-out: r5HT Uptk Ki
[12] = Table 8; Ki r5HT Uptk divided by Ki hGAL3
[13] = Table 8; Ki h5HT1A divided by Ki hGAL3
[14] = pyrimidines, read-out: Ki GalR1

Chain of DA transporter (P23977 whole entry): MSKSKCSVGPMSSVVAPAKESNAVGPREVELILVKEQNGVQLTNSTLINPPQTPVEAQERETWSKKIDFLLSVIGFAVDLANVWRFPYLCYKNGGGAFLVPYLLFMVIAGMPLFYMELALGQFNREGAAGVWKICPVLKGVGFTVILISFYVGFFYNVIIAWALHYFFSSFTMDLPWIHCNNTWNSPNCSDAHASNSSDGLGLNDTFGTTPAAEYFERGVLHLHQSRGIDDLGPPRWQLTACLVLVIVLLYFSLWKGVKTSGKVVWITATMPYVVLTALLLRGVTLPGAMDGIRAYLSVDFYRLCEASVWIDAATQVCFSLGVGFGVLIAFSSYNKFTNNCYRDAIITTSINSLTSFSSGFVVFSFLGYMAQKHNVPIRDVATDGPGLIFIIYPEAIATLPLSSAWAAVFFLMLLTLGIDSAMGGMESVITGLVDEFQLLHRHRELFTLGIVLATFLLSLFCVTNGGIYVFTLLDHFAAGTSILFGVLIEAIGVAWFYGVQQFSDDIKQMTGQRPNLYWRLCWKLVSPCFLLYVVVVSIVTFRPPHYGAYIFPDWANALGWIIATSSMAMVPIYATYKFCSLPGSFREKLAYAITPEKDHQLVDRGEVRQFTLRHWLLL
Chain of 5HT transporter (P31652 whole entry): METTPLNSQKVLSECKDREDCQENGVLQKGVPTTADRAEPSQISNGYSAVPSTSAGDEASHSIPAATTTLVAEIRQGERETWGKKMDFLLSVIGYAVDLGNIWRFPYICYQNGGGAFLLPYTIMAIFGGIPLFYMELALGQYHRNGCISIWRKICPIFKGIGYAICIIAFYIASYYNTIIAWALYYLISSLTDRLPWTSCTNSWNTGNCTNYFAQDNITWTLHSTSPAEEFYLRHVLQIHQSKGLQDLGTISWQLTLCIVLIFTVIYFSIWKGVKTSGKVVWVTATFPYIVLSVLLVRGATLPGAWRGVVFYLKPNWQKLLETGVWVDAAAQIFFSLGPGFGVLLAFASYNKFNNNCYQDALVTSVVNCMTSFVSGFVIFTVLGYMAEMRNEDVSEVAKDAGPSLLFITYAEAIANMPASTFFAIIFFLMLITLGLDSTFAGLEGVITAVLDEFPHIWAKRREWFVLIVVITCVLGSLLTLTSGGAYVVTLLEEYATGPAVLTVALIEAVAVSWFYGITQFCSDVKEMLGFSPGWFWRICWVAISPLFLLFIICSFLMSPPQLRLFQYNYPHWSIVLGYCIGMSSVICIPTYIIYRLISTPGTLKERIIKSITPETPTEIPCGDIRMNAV
Chain of NE transporter (Rattus norvegicus, UniProt Q63380) (Q63380 1-617): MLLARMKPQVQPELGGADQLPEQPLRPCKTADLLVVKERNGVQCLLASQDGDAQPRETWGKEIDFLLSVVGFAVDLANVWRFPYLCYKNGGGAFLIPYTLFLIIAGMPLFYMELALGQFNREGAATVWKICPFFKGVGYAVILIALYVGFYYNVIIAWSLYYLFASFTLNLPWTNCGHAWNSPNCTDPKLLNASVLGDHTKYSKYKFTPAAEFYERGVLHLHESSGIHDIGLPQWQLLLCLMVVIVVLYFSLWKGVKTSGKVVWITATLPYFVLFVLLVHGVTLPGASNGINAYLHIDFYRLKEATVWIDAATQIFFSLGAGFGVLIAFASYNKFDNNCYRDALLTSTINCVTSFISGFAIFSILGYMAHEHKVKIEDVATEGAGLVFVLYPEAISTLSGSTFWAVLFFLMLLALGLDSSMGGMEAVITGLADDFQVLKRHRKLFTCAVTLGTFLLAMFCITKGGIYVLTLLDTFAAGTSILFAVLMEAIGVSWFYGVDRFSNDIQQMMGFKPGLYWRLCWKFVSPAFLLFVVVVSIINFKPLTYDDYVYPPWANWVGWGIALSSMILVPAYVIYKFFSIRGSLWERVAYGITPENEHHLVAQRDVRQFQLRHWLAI
T1 sequence (P34969 1-445 isoform P34969-2): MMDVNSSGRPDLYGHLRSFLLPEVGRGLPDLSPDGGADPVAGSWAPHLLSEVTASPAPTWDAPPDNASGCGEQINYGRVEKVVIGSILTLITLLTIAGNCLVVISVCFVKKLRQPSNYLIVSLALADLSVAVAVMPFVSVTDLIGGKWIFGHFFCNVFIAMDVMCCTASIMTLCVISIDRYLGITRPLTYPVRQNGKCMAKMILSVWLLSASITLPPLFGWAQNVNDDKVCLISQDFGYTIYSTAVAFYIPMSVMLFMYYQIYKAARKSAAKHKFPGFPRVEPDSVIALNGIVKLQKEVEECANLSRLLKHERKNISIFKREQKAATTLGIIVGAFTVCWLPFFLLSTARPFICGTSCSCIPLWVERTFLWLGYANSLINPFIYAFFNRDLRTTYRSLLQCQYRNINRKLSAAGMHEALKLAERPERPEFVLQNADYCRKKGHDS

Compound	Ki ([1]; Table 7; read-out: h5HT7 Ki) [µM]	selectivity ratio h5HT7 [1, 8]	Ki [2, 9] [µM]	selectivity ratio rDA Uptk [2, 10]	Ki [3, 11] [µM]	selectivity ratio r5HT Uptk [3, 12]	selectivity ratio rNE Uptk [4]	Ki ([5]; Table 7; read-out: h5HT1A Ki) [µM]	selectivity ratio h5HT1A [5, 13]	Ki [6, 14] [µM]	Ki [7] [µM]	Ki ([1]; read-out: h5HT7 Ki; Table 7) [µM]	Ki ([2]; read-out: rDA Uptk Ki; Table 7; native transporter, head prints r (rat)) [µM]	Ki ([3]; read-out: r5HT Uptk Ki; Table 7; native transporter, head prints r (rat)) [µM]	Ki ([6]; read-out: Ki GalR1, pyrimidines) [µM]	Ki ([5]; read-out: h5HT1A Ki; Table 7) [µM]	Ki ([6]; indolones, read-out: Ki GalR1) [µM]
Cc1ccc(Nc2cc(N3CCCCC3)nc(N(C)CCc3c[nH]c4ccccc34)n2)cc1 [Example 11]	1.01	11	5.43	>30	1.59	18	>100	4.68	>30	–	–	–	–	–	–	–	–
CN(CCc1c[nH]c2ccccc12)c1nc(Nc2ccc(F)c(F)c2)cc(N2CCCCC2)n1 [Example 15]	2.53	>30	24.5	>100	1.74	24	>100	5.1	>30	2.43	–	–	–	–	–	–	–
COc1cccc(Nc2cc(N3CCCCC3)nc(N(C)CCc3c[nH]c4ccccc34)n2)c1 [Example 17]	1.8	21	27.2	>100	0.719	8	>100	3.48	>30	–	18.3	–	–	–	–	–	–
Cc1ccc(Nc2cc(N3CCCCC3)nc(N(C)CCc3ccccc3)n2)cc1 [Example 22]	2.67	>30	7.48	>100	8.48	>100	>100	9.71	>100	0.442	13.1	–	–	–	–	–	–
Cc1ccc(Nc2cc(N3CCCCC3)nc(N3CCN(c4ncccc4C(F)(F)F)CC3)n2)cc1 [Example 34]	4.44	>100	3.9	>100	37.5	>100	>100	–	>100	0.912	–	–	–	–	–	–	–
COC[C@@H]1[C@@H](c2ccccc2)OCCN1c1nc(Nc2ccc(C)cc2)cc(N2CCCCC2)n1 [Example 49]	–	>30	–	10	–	>100	–	–	>100	–	–	12.3	2.01	40.7	> 5	29.2	–
CN(C)c1cc(Nc2ccc(Cl)c(Cl)c2)nc(Nc2ccccc2)n1 [Example 60]	3.24	>30	14.5	>100	25.3	>100	>100	33.7	>100	> 5	46.1	–	–	–	–	–	–
Cc1ccc(Nc2cc(N(C)C)nc(N(C)CCc3c[nH]c4ccccc34)n2)cc1 [Example 77]	1.55	20	2.79	>30	0.821	10	>100	5.47	>30	3.8	28.1	–	–	–	–	–	–
O=C1C(=Nc2cccc(C(F)(F)F)c2)c2ccccc2N1c1ccccc1 [Example 92, 1-PHENYL-3- [[3-(TRIFLUOROMETHYL)PHENYL]IMINO]-1,3-DIHYDRO-2H-INDOL-2-ONE]	–	–	–	>100	–	>100	–	–	>100	–	–	–	–	–	–	–	–
O=C1C(=Nc2cccc(Cl)c2)c2ccccc2N1c1ccccc1 [Example 94, 3-[(3-CHLOROPHENYL)IMINO]-1-PHENYL-1,3-DIHYDRO-2H-INDOL-2-ONE]	8.02	>100	2.2	>130	13	>100	>30	> 50	>100	–	4.88	–	–	–	–	–	> 10
O=C1C(=Nc2ccc(C(F)(F)F)cc2)c2ccccc2N1c1ccccc1 [Example 95, 1-PHENYL-3-[[4-(TRIFLUOROMETHYL)PHENYL]IMINO]-1,3-DIHYDRO-2H-INDOL-2-ONE]	11.6	>100	12	>100	> 50	>100	>100	28.3	>100	–	6.1	–	–	–	–	–	> 10
O=C1C(=Nc2ccc(Cl)cc2)c2ccccc2N1c1ccccc1 [Example 97, 3-[(4-CHLOROPHENYL)IMINO]-1-PHENYL-1,3-DIHYDRO-2H-INDOL-2-ONE]	11.3	>100	8.44	>100	36.3	>100	>30	> 50	>100	–	4.41	–	–	–	–	–	> 10
O=C1C(=Nc2cc(Cl)cc(Cl)c2)c2ccccc2N1c1ccccc1 [Example 103, 3-[(3,5-DICHLOROPHENYL)IMINO]-1-PHENYL-1,3-DIHYDRO-2H-INDOL-2-ONE]	–	–	–	–	–	–	–	–	–	–	–	–	–	–	–	–	> 10
